# Assay results published in US9745261B2, “Inhibitors of the MITF molecular pathway” (THE GENERAL HOSPITAL CORPORATION, priority 2013, dated 2017).
# How the values were obtained:
# MALME-3M cells = experiment: MALME-3M cell cytotoxicity assay (CellTiter-Glo); format: cell-based, human; conditions: Homo sapiens, Malme-3M, read-out: Target Potency IC50 (μM) MALME-3M; 24 hours, CellTiter-Glo
# Description: MALME-3M cells were treated with compounds for 24 hours, and then cell viability was measured using the CellTiter-Glo Assay (Promega), a luciferase-based reagent that measures cellular ATP levels. The compounds were tested at different concentrations to determine IC50 values. Compounds that were active in the primary assay and toxic below 30 μM at 24 hours were considered for probe development. Data were normalized against DMSO in Genedata Screener's Assay Analyzer.
# MALME-3M cells were maintained in IMDM (20% FBS, 1% Pen-Strep-Glutamine). Cells were fluid changed every 3 days and/or split upon reaching 100% confluency. For secondary assays, cells were thawed at 6 million cells per Falcon T175 flask. After 3 days, cells were fluid changed, after 3 more days cells were passed to a Corning Triple flask (15-18 million cells) and plated after 3 days in the triple flask.
# Day 1 • 1. Plate MALME-3M cells at 3,000 per well in 30 uL media (phenol red free IMDM/10% Fetal Bovine Serum/Penicillin/Streptomycin/L-Glutamine) • 2. Use Corning white 384-well, square, opaque-bottomed plates (Corning Catalog No. 8867BC)
# Day 2 • 3. Pin 100 nL compound/DMSO solution (Cybi Well) into assay plates, including the positive control. • 4. Incubate 24 hours at 37° C. in Liconic incubator.
# Day 3 • 5. […] Read on the Perkin-Elmer EnVision plate reader with luminescence (LUM) settings for 0.1 sec per well. […]
# [1] = tested on: primary human melanocytes; experiment: Cell proliferation/viability assay of primary human melanocytes; format: cell-based; conditions: Melanocyte, 24 hours, CellTiter-Glo
# Description: Primary human neonatal melanocytes were isolated from discarded foreskins by gentle dispase treatment and grown in Ham's F10 media supplemented with 7% FBS, penicillin/streptomycin/glutamine, 0.1 mM methyl-3-(2-methylpropyl)-7H-1-purine-2,6-dione (IBMX), 50 ng/mL 12-tetradecanoylphorbol 13-acetate (TPA), 1 μM Na3VO4 and 1 μM N(6),2′-O-dibutyryladenosine 3′:5′ cyclic monophosphate (dbcAMP). Cells were plated at 4,000 cells per well of a 384 well plate. On the following day, 10 nL of compound was added per well and incubated for 24 hours. The compounds were tested at different concentrations to determine IC50 values. At the end of compound treatment, cell viability was measured with CellTiter-Glo (Promega) and luminescence measured with the PerkinElmer EnVision plate reader. Data were normalized against DMSO in Genedata Screener's Assay Analyzer.
# Primary human neonatal melanocytes were isolated from discarded foreskins by gentle dispase treatment and grown in TIVA media (Ham's F10 media supplemented with 7% FBS, penicillin/streptomycin/glutamine, 0.1 mM IBMX, 50 ng/mL TPA, […]). […]
# Day 3 • 5. […] Read on the Perkin-Elmer EnVision plate reader with luminescence (LUM) settings for 0.1 sec per well. qPCR Assay for Target Gene Expression (MITF: 2084-05, TRPM1: 2084-09, CDK2: 2084-11, DCT: 2084-12, MLANA: 2084-13)
# Adrenergic α2A = target: T1, Adrenergic α2A (Homo sapiens, UniProt P08913); experiment: Radioligand binding, Adrenergic α2A
# T1 construct: Eurofins Panlabs, Inc. (contract assay)
# Tachykinin NK1 = target: T2, Tachykinin NK1 (Homo sapiens, UniProt P25103); experiment: Radioligand binding, Tachykinin NK1
# T2 construct: Eurofins Panlabs
# [2] = target: T3, Transporter, Norepinephrine (NET) (Homo sapiens, UniProt P23975); experiment: Radioligand binding, Transporter, Norepinephrine (NET)
# T3 construct: Eurofins Panlabs
# Dopamine D1 = target: T4, Dopamine D1 (Homo sapiens, UniProt P21728); experiment: Radioligand binding, Dopamine D1
# T4 construct: Eurofins Panlabs, Inc. (contract assay)
# Opiate μ (OP3, MOP) = target: T5, Opiate μ (OP3, MOP) (Homo sapiens, UniProt P35372); experiment: Radioligand binding, Opiate μ (OP3, MOP)
# T5 construct: Eurofins Panlabs, Inc
# Adrenergic α1B = target: T6, Adrenergic α1B (Rattus norvegicus, UniProt P15823); experiment: Radioligand binding, Adrenergic α1B
# T6 construct: Eurofins Panlabs, Inc. (contract assay)
# Adenosine A2A = target: T7, Adenosine A2A (Homo sapiens, UniProt P29274); experiment: Radioligand binding, Adenosine A2A
# T7 construct: Eurofins Panlabs, Inc. (contract assay) 200610 (assay number)
# Glucocorticoid = target: T8, Glucocorticoid (Homo sapiens, UniProt P04150); experiment: Radioligand binding, Glucocorticoid
# T8 construct: Eurofins Panlabs, Inc
# Cannabinoid CB1 = target: T9, Cannabinoid CB1 (Homo sapiens, UniProt P21554); experiment: Radioligand binding, Cannabinoid CB1
# T9 construct: Eurofins Panlabs, Inc. (contract assay)
# Transporter, GABA = target: T10, Transporter, GABA (Rattus norvegicus, UniProt P23978); experiment: Radioligand binding, Transporter, GABA
# T10 construct: Eurofins Panlabs
# Opiate δ1 (OP1, DOP) = target: T11, Opiate δ1 (OP1, DOP) (Homo sapiens, UniProt P41143); experiment: Radioligand binding, Opiate δ1 (OP1, DOP)
# T11 construct: Eurofins Panlabs, Inc
# [3] = target: T12, Androgen (Testosterone) AR (Rattus norvegicus, UniProt P15207); experiment: Radioligand binding, Androgen (Testosterone) AR
# T12 construct: Eurofins Panlabs, Inc. (contract assay)
# T12 sequence (P15207 whole entry S389L): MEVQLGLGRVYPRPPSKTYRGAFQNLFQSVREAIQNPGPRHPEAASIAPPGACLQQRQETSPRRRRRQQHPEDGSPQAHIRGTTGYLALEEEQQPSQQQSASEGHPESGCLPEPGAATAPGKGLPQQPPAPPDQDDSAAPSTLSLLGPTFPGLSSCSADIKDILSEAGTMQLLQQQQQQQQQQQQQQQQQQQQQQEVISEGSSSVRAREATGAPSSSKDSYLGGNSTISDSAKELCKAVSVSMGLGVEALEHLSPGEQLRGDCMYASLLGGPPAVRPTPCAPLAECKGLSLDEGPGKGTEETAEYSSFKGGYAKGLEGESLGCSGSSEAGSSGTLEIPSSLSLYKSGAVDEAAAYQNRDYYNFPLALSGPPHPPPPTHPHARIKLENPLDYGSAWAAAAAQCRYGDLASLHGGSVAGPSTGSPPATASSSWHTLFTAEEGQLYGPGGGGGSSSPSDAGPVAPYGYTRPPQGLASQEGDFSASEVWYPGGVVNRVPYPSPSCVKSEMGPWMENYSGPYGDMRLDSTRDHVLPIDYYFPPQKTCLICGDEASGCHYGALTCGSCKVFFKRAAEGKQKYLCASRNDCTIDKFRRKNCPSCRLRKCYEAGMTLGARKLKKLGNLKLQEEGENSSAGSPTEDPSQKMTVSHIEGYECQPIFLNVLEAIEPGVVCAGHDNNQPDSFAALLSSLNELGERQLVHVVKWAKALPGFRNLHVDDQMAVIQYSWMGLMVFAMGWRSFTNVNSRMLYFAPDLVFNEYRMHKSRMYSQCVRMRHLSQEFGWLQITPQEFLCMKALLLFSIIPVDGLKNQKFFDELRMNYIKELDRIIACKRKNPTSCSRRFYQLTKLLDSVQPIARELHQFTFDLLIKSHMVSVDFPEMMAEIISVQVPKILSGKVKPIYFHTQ
# T2 sequence (P25103 whole entry): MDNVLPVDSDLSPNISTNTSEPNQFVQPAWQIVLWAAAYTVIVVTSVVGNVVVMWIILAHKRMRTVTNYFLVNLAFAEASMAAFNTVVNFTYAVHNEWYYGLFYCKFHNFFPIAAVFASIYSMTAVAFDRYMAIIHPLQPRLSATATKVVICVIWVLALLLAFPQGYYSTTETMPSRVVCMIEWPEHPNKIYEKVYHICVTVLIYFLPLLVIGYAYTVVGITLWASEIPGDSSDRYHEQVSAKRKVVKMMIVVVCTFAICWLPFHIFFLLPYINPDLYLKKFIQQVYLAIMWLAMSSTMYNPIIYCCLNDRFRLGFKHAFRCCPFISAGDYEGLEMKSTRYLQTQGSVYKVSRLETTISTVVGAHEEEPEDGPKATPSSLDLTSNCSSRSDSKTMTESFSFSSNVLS
# T4 sequence (P21728 whole entry): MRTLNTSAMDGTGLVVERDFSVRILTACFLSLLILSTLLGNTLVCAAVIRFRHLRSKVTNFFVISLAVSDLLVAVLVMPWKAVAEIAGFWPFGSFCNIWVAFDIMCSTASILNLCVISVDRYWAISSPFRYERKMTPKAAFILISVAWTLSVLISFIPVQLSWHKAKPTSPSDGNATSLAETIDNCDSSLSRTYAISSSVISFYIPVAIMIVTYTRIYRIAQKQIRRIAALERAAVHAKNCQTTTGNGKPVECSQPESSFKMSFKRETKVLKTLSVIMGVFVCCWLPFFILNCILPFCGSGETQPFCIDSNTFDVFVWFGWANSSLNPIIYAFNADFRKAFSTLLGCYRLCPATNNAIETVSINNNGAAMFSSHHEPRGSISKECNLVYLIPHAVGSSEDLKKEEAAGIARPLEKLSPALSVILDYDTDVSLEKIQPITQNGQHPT
# T6 sequence (P15823 whole entry): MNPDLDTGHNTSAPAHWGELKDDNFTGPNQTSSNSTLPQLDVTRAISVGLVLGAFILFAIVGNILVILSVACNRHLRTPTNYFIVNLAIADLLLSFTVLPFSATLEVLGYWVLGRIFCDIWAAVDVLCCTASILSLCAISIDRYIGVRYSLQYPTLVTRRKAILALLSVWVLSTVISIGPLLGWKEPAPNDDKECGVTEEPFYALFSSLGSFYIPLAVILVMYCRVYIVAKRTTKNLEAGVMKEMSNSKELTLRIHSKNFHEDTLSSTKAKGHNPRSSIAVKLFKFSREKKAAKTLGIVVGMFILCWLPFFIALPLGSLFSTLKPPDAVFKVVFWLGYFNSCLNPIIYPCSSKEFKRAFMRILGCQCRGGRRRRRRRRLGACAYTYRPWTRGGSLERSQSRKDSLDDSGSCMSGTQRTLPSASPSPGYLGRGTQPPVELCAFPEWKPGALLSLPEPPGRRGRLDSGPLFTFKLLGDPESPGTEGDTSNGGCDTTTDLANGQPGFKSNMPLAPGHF
# T11 sequence (P41143 whole entry): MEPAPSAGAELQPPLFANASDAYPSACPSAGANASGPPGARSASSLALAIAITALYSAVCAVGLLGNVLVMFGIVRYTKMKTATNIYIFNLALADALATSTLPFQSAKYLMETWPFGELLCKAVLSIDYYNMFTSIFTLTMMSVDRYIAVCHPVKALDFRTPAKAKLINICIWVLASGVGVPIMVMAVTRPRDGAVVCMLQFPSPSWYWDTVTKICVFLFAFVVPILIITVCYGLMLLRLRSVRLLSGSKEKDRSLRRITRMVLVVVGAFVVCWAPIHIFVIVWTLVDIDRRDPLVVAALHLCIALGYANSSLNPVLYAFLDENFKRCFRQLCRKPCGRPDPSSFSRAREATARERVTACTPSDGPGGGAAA
# T5 sequence (P35372 whole entry): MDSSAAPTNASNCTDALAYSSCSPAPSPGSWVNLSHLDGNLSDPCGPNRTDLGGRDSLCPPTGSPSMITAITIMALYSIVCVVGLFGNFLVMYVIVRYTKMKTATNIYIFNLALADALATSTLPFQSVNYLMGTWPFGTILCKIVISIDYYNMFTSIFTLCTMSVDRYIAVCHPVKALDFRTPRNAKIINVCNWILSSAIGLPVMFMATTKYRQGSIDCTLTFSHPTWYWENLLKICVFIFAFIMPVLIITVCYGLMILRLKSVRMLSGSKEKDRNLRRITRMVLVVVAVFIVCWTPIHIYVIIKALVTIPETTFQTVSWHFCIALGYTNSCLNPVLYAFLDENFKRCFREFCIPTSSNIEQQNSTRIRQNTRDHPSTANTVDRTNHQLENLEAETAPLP
# T9 sequence (P21554 whole entry): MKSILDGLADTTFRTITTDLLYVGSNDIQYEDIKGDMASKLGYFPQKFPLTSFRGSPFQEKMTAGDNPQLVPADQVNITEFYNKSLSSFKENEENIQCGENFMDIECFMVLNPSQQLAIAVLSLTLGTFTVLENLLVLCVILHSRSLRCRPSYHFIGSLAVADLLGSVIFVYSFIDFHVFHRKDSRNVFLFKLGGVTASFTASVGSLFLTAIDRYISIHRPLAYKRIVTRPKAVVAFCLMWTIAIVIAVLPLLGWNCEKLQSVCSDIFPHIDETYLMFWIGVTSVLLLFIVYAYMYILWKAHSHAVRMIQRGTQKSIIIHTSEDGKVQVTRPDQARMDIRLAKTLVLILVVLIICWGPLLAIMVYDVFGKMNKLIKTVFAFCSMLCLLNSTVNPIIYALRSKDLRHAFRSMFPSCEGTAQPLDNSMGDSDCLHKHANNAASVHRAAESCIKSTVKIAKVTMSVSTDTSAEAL
# T3 sequence (P23975 whole entry): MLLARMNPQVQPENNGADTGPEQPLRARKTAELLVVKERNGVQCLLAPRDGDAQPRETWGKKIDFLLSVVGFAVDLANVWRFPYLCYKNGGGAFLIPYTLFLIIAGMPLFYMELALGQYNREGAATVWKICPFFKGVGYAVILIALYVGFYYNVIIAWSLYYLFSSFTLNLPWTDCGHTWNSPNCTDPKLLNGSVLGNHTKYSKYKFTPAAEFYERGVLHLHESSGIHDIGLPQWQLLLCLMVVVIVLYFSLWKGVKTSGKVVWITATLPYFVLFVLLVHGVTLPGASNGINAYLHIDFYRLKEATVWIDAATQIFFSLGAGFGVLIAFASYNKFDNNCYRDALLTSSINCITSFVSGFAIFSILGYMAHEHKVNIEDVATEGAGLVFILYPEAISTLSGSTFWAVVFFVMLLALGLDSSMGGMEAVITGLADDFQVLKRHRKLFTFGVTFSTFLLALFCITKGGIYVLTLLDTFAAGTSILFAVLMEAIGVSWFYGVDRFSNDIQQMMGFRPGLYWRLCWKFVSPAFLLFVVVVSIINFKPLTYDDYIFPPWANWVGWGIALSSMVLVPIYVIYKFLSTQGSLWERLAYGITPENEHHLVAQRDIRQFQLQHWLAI
# T7 sequence (P29274 whole entry): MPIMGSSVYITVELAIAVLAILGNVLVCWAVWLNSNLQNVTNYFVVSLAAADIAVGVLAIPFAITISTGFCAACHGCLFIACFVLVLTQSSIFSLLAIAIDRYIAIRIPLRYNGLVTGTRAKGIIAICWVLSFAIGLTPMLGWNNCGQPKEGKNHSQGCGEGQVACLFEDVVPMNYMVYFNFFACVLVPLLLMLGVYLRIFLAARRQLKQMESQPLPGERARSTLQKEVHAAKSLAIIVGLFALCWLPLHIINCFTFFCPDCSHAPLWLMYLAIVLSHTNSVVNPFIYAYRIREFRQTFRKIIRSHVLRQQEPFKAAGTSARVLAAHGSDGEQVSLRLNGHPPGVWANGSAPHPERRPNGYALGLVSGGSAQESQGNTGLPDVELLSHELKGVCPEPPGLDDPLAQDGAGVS
Compound,IC50 (MALME-3M cells),IC50 [1],inhibition at 10 µM (Adrenergic α2A),inhibition at 10 µM (Tachykinin NK1),inhibition at 10 µM [2],inhibition at 10 µM (Dopamine D1),"inhibition at 10 µM (Opiate μ (OP3, MOP))",inhibition at 10 µM (Adrenergic α1B),inhibition at 10 µM (Adenosine A2A),inhibition at 10 µM (Glucocorticoid),inhibition at 10 µM (Cannabinoid CB1),"inhibition at 10 µM (Transporter, GABA)","inhibition at 10 µM (Opiate δ1 (OP1, DOP))",inhibition at 10 µM [3]
"NS(=O)(=O)c1ccc(NC2=CC(=O)c3ccccc3C2=O)cc1 [4-((1,4-dioxo-1,4-dihydronaphthalen-2-yl)amino)benzenesulfonamide]",0.88 µM,7.14 µM,,,,,,,,,,,,
"NS(=O)(=O)c1ccc(NC2=CC(=O)c3ccccc3C2=O)cc1 [Example 1, 4-((1,4-Dioxo-1,4-dihydronaphthalen-2-yl)amino)benzenesulfonamide]",,,33%,37%,8%,21%,1%,16%,50%,5%,31%,9%,-6%,14%
